Like-named read-outs stand apart in the source and are kept apart here. Where only a bound is given, the exact number is not on record here.

Our source for the IC50 values is patent US12029739B2, “SHP2 inhibitor and use thereof” (KANAPH THERAPEUTICS INC., priority 2021, dated 2024).

Assay [1] addresses T1, SHP2 (full length) (Homo sapiens, UniProt Q06124).
T1 construct: SHP2 (full length, diluted to 100 pM final concentration in reaction buffer, BPS bioscience, US); purchased BPS bioscience, US
T1 sequence (Q06124 1-593): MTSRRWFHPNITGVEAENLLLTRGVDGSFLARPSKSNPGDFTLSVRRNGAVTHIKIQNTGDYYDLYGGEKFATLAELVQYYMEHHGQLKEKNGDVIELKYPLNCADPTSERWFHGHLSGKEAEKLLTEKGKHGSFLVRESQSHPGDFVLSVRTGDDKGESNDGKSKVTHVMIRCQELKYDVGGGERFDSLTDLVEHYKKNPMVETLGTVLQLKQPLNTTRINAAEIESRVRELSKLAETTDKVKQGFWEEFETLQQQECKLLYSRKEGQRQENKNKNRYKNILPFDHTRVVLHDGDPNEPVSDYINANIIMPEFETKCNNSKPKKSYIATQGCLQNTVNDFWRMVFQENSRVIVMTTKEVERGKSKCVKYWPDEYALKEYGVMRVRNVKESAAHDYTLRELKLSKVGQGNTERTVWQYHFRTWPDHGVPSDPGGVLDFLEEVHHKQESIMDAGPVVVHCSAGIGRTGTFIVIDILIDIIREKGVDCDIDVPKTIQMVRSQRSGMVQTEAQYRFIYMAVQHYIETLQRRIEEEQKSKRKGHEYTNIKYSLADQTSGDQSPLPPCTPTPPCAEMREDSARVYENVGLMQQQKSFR
Nature of the assay: Phosphatase assay (PTPase assay) with DiFMUP substrate. It is filed as biochemical. The conditions noted are these: SHP2 activated with SHP2 activating peptide; DiFMUP 80 μM, 2 hours; fluorescence; read-out: IC50 (PTPase aS say).

Assay [2] concerns phospho-ERK in MIA PaCa2 or H358 cells. Put plainly: Phospho-ERK assay (AlphaLisa). The class given is cell-based. Conditions: MIA PaCa2 or H358 cells, compound incubated 1.5 hours, read-out: IC50 (p-ERK). A general note: Alpha assays give light when donor and acceptor beads are brought close together.

For orientation: IC50 means the concentration at which inhibition is half-maximal. For the molecule `C[C@@H]1OCC2(CCN(c3cnc(Sc4ccc5ncn(CC(O)CF)c(=O)c5c4Cl)cn3)CC2)[C@@H]1N` (stereo partly drawn) [Example 76, 6-((5-((3S,4S)-4-amino-3-methyl-2-oxa-8-azaspiro[4.5]decan-8-yl)pyrazin-2-yl)thio)-5-chloro-3-(3-fluoro-2-hydroxypropyl)quinazolin-4(3H)-one], the half-maximal inhibitory concentration (IC50) in assay [1] fell in the range of 3 to 100 nM; in assay [2] (1.5 h), 45 to 1500 nM.

For the molecule `C[C@@H]1OCC2(CCN(c3cnc(Sc4ccc5ncn(CCCF)c(=O)c5c4Cl)cn3)CC2)[C@@H]1N` [Example 77, 6-((5-((3S,4S)-4-amino-3-methyl-2-oxa-8-azaspiro[4.5]decan-8-yl)pyrazin-2-yl)thio)-5-chloro-3-(3-fluoropropyl)quinazolin-4(3H)-one], the half-maximal inhibitory concentration (IC50) in assay [1] is under 3 nM; in assay [2] (1.5 h), under 45 nM.

Consider `C[C@@H]1OCC2(CCN(c3cnc(Sc4ccc5ncn(CN6CCOCC6)c(=O)c5c4Cl)cn3)CC2)[C@@H]1N` [Example 78, 6-((5-((3S,4S)-4-amino-3-methyl-2-oxa-8-azaspiro[4.5]decan-8-yl)pyrazin-2-yl)thio)-5-chloro-3-(morpholinomethyl)quinazolin-4(3H)-one], for which the IC50 in assay [1] is under 3 nM; in assay [2] (1.5 h) it was under 45 nM.

Consider `C[C@@H]1OCC2(CCN(c3cnc(Sc4ccc5ncn(CC6(F)CCOCC6)c(=O)c5c4Cl)cn3)CC2)[C@@H]1N` [Example 79, 6-((5-((3S,4S)-4-amino-3-methyl-2-oxa-8-azaspiro[4.5]decan-8-yl)pyrazin-2-yl)thio)-5-chloro-3-((4-fluorotetrahydro-2H-pyran-4-yl)methyl)quinazolin-4(3H)-one], for which the IC50 in assay [1] was under 3 nM; in assay [2] (1.5 h) it was under 45 nM.

In the case of `C[C@@H]1OCC2(CCN(c3cnc(Sc4ccc5ncn(CC6(F)COC6)c(=O)c5c4Cl)cn3)CC2)[C@@H]1N` [Example 80, 6-((5-((3S,4S)-4-amino-3-methyl-2-oxa-8-azaspiro[4.5]decan-8-yl)pyrazin-2-yl)thio)-5-chloro-3-((3-fluorooxetan-3-yl)methyl)quinazolin-4(3H)-one], the concentration for half-maximal inhibition (IC50) in assay [1] was under 3 nM; in assay [2] (1.5 h), under 45 nM.

For `C[C@@H]1OCC2(CCN(c3cnc(Sc4ccc5ncn(CC(C)(C)O)c(=O)c5c4Cl)cn3)CC2)[C@@H]1N` [Example 81, 6-((5-((3S,4S)-4-amino-3-methyl-2-oxa-8-azaspiro[4.5]decan-8-yl)pyrazin-2-yl)thio)-5-chloro-3-(2-hydroxy-2-methylpropyl)quinazolin-4(3H)-one], the IC50 is under 3 nM in assay [1] and under 45 nM in assay [2] (1.5 h).

Consider `C[C@@H]1OCC2(CCN(c3cnc(Sc4ccc5ncn(CCS(C)(=O)=O)c(=O)c5c4Cl)cn3)CC2)[C@@H]1N` [Example 82, 6-((5-((3S,4S)-4-amino-3-methyl-2-oxa-8-azaspiro[4.5]decan-8-yl)pyrazin-2-yl)thio)-5-chloro-3-(2-(methylsulfonyl)ethyl)quinazolin-4(3H)-one], for which the concentration for half-maximal inhibition (IC50) in assay [1] was under 3 nM; in assay [2] (1.5 h) it was under 45 nM.

Consider `C[C@@H]1OCC2(CCN(c3cnc(Sc4ccc5ncn(CC6(O)CCOCC6)c(=O)c5c4Cl)cn3)CC2)[C@@H]1N` [Example 83, 6-((5-((3S,4S)-4-amino-3-methyl-2-oxa-8-azaspiro[4.5]decan-8-yl)pyrazin-2-yl)thio)-5-chloro-3-((4-hydroxytetrahydro-2H-pyran-4-yl)methyl)quinazolin-4(3H)-one], for which the figures for the 50% inhibitory concentration (IC50) in assay [1] and in assay [2] (1.5 h) were under 3 nM and under 45 nM, respectively.

Turning to `COCCn1cnc2ccc(Sc3cnc(N4CCC5(CC4)Cc4ccccc4[C@H]5N)cn3)c(Cl)c2c1=O` [Example 84, (S)-6-((5-(1-amino-1,3-dihydrospiro(indene-2,4′-piperidin]-1′-yl)pyrazin-2-yl)thio)-5-chloro-3-(2-methoxyethyl)quinazolin-4(3H)-one], the concentration for half-maximal inhibition (IC50) was under 3 nM in assay [1] and under 45 nM in assay [2].

`C[C@@H]1OCC2(CCN(c3cnc(Sc4ccc5c(c4Cl)C(=O)N(Cc4ccccc4)CC5)cn3)CC2)[C@@H]1N` [Example 85, 7-((5-((3S,4S)-4-amino-3-methyl-2-oxa-8-azaspiro[4.5]decan-8-yl)pyrazin-2-yl)thio)-2-benzyl-8-chloro-3,4-dihydroisoquinolin-1(2H)-one]: the concentration for half-maximal inhibition (IC50) was 3 to 100 nM in assay [1] and over 1500 nM in assay [2] (1.5 h).

Turning to `C[C@@H]1OCC2(CCN(c3cnc(Sc4ccnc(C(=O)NCc5cccnc5)c4Cl)cn3)CC2)[C@@H]1N` [Example 87, 4-((5-((3S,4S)-4-amino-3-methyl-2-oxa-8-azaspiro[4.5]decan-8-yl)pyrazin-2-yl)thio)-3-chloro-N-(pyridin-3-ylmethyl)picolinamide], the IC50 in assay [1] lay in the range of 3 to 100 nM; in assay [2] (1.5 h) it was 45 to 1500 nM.

In the case of `C[C@@H]1OCC2(CCN(c3cnc(Sc4ccc5ncn(Cc6ccccn6)c(=O)c5c4Cl)cn3)CC2)[C@@H]1N` [Example 88, 6-((5-((3S,4S)-4-amino-3-methyl-2-oxa-8-azaspiro[4.5]decan-8-yl)pyrazin-2-yl)thio)-5-chloro-3-(pyridin-2-ylmethyl)quinazolin-4(3H)-one], the half-maximal inhibitory concentration (IC50) in assay [1] was under 3 nM; in assay [2] (1.5 h) it was under 45 nM.

On to `C[C@@H]1OCC2(CCN(c3cnc(Sc4ccc5ncn(CCN6CCCC6)c(=O)c5c4Cl)cn3)CC2)[C@@H]1N` [Example 89], for which the 50% inhibitory concentration (IC50) was in the range of 3 to 100 nM in assay [1] and 45 to 1500 nM in assay [2] (1.5 h).

As to `C[C@@H]1OCC2(CCN(c3cnc(Sc4ccc5ncn(CC(=O)c6cccnc6)c(=O)c5c4Cl)cn3)CC2)[C@@H]1N` [Example 90, 6-((5-((3S,4S)-4-amino-3-methyl-2-oxa-8-azaspiro[4.5]decan-8-yl)pyrazin-2-yl)thio)-5-chloro-3-(2-oxo-2-(pyridin-3-yl]ethyl)quinazolin-4(3H)-one], the IC50 was under 3 nM in assay [1] and under 45 nM in assay [2] (1.5 h).

Turning to `C[C@@H]1OCC2(CCN(c3cnc(Sc4ccc5ncn(C6CCCCC6)c(=O)c5c4Cl)cn3)CC2)[C@@H]1N` [Example 91, 6-((5-((3S,4S)-4-amino-3-methyl-2-oxa-8-azaspiro[4.5]decan-8-yl)pyrazin-2-yl)thio)-5-chloro-3-cyclohexylquinazolin-4(3H)-one], the IC50 lay within 3 to 100 nM in assay [1] and 45 to 1500 nM in assay [2] (1.5 h).

Turning to `CC(=O)Cn1cnc2ccc(Sc3cnc(N4CCC5(CC4)CO[C@@H](C)[C@H]5N)cn3)c(Cl)c2c1=O` [Example 92, 6-((5-((3S,4S)-4-amino-3-methyl-2-oxa-8-azaspiro[4.5]decan-8-yl)pyrazin-2-yl)thio)-5-chloro-3-(2-oxopropyl)quinazolin-4(3H)-one], the IC50 in assay [1] is under 3 nM; in assay [2] (1.5 h), under 45 nM.

For the molecule `COc1ccc(C)cc1Cn1cnc2ccc(Sc3cnc(N4CCC5(CC4)CO[C@@H](C)[C@H]5N)cn3)c(Cl)c2c1=O` [Example 93, 6-((5-((3S,4S)-4-amino-3-methyl-2-oxa-8-azaspiro[4.5]decan-8-yl)pyrazin-2-yl)thio)-5-chloro-3-(2-methoxy-5-methylbenzyl)quinazolin-4(3H)-one], the IC50 is under 3 nM in assay [1] and under 45 nM in assay [2] (1.5 h).

Consider `COCCCn1cnc2ccc(Sc3cnc(N4CCC5(CC4)CO[C@@H](C)[C@H]5N)cn3)c(Cl)c2c1=O` [Example 94, 6-((5-((3S,4S)-4-amino-3-methyl-2-oxa-8-azaspiro[4.5]decan-8-yl)pyrazin-2-yl)thio)-5-chloro-3-(3-methoxypropyl)quinazolin-4(3H)-one], for which the half-maximal inhibitory concentration (IC50) is under 3 nM in assay [1] and over 1500 nM in assay [2] (1.5 h).

`C[C@@H]1OCC2(CCN(c3cnc(Sc4ccc5ncn(CC(=O)N6CCCCC6)c(=O)c5c4Cl)cn3)CC2)[C@@H]1N` [Example 95, 6-((5-((3S,4S)-4-amino-3-methyl-2-oxa-8-azaspiro[4.5]decan-8-yl)pyrazin-2-yl)thio)-5-chloro-3-(2-oxo-(2-piperidin-1-yl]ethyl)quinazolin-4(3H)-one]: the IC50 in assay [1] is under 3 nM; in assay [2] (1.5 h), 45 to 1500 nM.

As for `C[C@@H]1OCC2(CCN(c3cnc(Sc4ccc5ncn(CCOC(F)(F)F)c(=O)c5c4Cl)cn3)CC2)[C@@H]1N` [Example 96, 6-((5-((3S,4S)-4-amino-3-methyl-2-oxa-8-azaspiro[4.5]decan-8-yl)pyrazin-2-yl)thio)-5-chloro-3-(2-(trifluoromethoxy)ethyl)quinazolin-4(3H)-one], the IC50 in assay [1] was 3 to 100 nM; in assay [2] (1.5 h), under 45 nM.

As for `C[C@@H]1OCC2(CCN(c3cnc(Sc4ccc5ncn(CC(N)=O)c(=O)c5c4Cl)cn3)CC2)[C@@H]1N` [Example 97, 2-(6-((5-((3S,4S)-4-amino-3-methyl-2-oxa-8-azaspiro[4.5]decan-8-yl)pyrazin-2-yl)thio)-5-chloro-4-oxoquinazolin-3(4H)-yl)acetamide], the IC50 in assay [1] is under 3 nM; in assay [2] (1.5 h), under 45 nM.

Consider `C[C@@H]1OCC2(CCN(c3cnc(Sc4ccc5ncn(CCC(N)=O)c(=O)c5c4Cl)cn3)CC2)[C@@H]1N` [Example 98, 3-(6-((5-((3S,4S)-4-amino-3-methyl-2-oxa-8-azaspiro[4.5]decan-8-yl)pyrazin-2-yl)thio)-5-chloro-4-oxoquinazolin-3(4H)-yl)propanamide], for which the IC50 in assay [1] was 3 to 100 nM; in assay [2] (1.5 h) it was 45 to 1500 nM.
